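Grown in 96-well plates, cells were treated for 48 hours with each compound at five concentrations. Insufficient inhibition: endpoint recorded as highest concentration tested. At the TGI there is no net growth.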
Tests used:
Assay in all cases: DTP human tumour cell line panel, 48 h
[1] = test system: SK-MEL-28 melanoma
[2] = test system: OVCAR-4 ovarian
[3] = test system: NCI-H522 lung
[4] = test system: NCI/ADR-RES ovarian
[5] = test system: 786-0 renal
[6] = test system: MALME-3M melanoma
[7] = test system: HCT-15 colon
[8] = test system: M14 melanoma
[9] = test system: MDA-MB-435
[10] = test system: U251 CNS
[11] = test system: SNB-75 CNS
[12] = test system: BT-549 breast
[13] = test system: HCT-116 colon
[14] = test system: KM12 colon
[15] = test system: A549 NSCLC
[16] = test system: HOP-62 NSCLC
[17] = test system: NCI-H460 lung
[18] = test system: HT29 colon
[19] = test system: IGROV1 ovarian
[20] = test system: MCF7 breast
[21] = test system: EKVX NSCLC
[22] = test system: NCI-H226 lung
[23] = test system: UACC-257 melanoma
[24] = test system: NCI-H23 lung
[25] = test system: T-47D breast
[26] = test system: SN12C renal
[27] = test system: SR leukemia
[28] = test system: RXF 393 renal
[29] = test system: SK-MEL-5 melanoma
[30] = test system: CAKI-1 renal
[31] = test system: OVCAR-3 ovarian
[32] = test system: DU-145 prostate
[33] = test system: SW-620 colon
[34] = test system: SNB-19 CNS
[35] = test system: UO-31 renal
[36] = test system: K-562 leukemia
[37] = test system: HL-60(TB) leukemia
[38] = test system: HCC-2998 colon
[39] = test system: TK-10 renal
[40] = test system: MDA-N
[41] = test system: OVCAR-8 ovarian
[42] = test system: SF-268 CNS
[43] = test system: SF-539 CNS
[44] = test system: MOLT-4 leukemia
[45] = test system: PC-3 prostate
[46] = test system: HS 578T breast
[47] = test system: SF-295 CNS
[48] = test system: A498 renal
[49] = test system: HOP-92 NSCLC
[50] = test system: OVCAR-5 ovarian
[51] = test system: SK-MEL-2 melanoma
[52] = test system: COLO 205 colon
[53] = test system: MDA-MB-231 breast
[54] = test system: UACC-62 melanoma
[55] = test system: CCRF-CEM leukemia
[56] = test system: ACHN renal
[57] = test system: SK-OV-3 ovarian
[58] = test system: RPMI-8226 leukemia
[59] = test system: LOX IMVI melanoma

`CCOC(=O)c1ccc(NC(=O)O/N=C(/Cl)CC)cc1` was tested, and the TGI [1] was 30.6 µM, the TGI [2] was 10.1 µM and the TGI [3] was 6.81 µM. The TGI [4] was 22 µM, the TGI [5] was 13 µM and the TGI [6] was 9.14 µM. For the same compound, the TGI [7] was 28.9 µM, the TGI [8] was 25.6 µM and the TGI [9] was 34.6 µM. The TGI [10] was 34.3 µM, the TGI [11] was 28.2 µM and the TGI [12] was 59.5 µM. The TGI [13] was 26.1 µM, the TGI [14] was 36.1 µM and the TGI [15] was over 60.8 µM. The TGI [16] was 38.1 µM, the TGI [17] was 40.9 µM and the TGI [18] was 44.5 µM. It also gave a TGI [19] of 41.3 µM, a TGI [20] of 30.9 µM and a TGI [21] of 32.2 µM. It also gave a TGI [22] of 40 µM, a TGI [23] of 29.8 µM and a TGI [24] of 39.9 µM. It also gave a TGI [25] of 19.8 µM, a TGI [26] of 39.3 µM and a TGI [27] of 11.6 µM. For the same compound, the TGI [28] was 31.1 µM, the TGI [29] was 29.5 µM and the TGI [30] was 8.72 µM. It also gave a TGI [31] of 3.5 µM, a TGI [32] of 33.5 µM and a TGI [33] of 3.36 µM. The TGI [34] was 45.5 µM, the TGI [35] was 31.4 µM and the TGI [36] was 3.6 µM. For the same compound, the TGI [37] was 6.47 µM, the TGI [38] was 32.6 µM and the TGI [39] was over 34.4 µM. For the same compound, the TGI [40] was 32.6 µM, the TGI [41] was 30.4 µM and the TGI [42] was 48 µM. It also gave a TGI [43] of 33.6 µM, a TGI [44] of 4.51 µM and a TGI [45] of 33.3 µM. It also gave a TGI [46] of 67.5 µM, a TGI [47] of 36.4 µM and a TGI [48] of 32.4 µM. It also gave a TGI [49] of 6.77 µM, a TGI [50] of 34.3 µM and a TGI [51] of 31.9 µM. It also gave a TGI [52] of 5.5 µM, a TGI [53] of 42.5 µM and a TGI [54] of 45.4 µM. The TGI [55] was 4.54 µM, the TGI [56] was 22.9 µM and the TGI [57] was 31.7 µM.

`O=C(CCc1ccc(O)c(O)c1)NCCc1cc(O)cc(OCc2ccccc2)c1` showed a TGI [1] of over 100 µM, a TGI [3] of over 100 µM and a TGI [4] of over 100 µM. It also gave a TGI [5] of over 100 µM, a TGI [7] of 58.4 µM and a TGI [8] of over 100 µM. The TGI [9] was over 100 µM, the TGI [10] was over 100 µM and the TGI [11] was over 100 µM. The TGI [12] was 86 µM, the TGI [13] was over 100 µM and the TGI [14] was over 100 µM. It also gave a TGI [15] of over 100 µM, a TGI [16] of over 100 µM and a TGI [17] of 51.7 µM. The TGI [18] was over 100 µM, the TGI [19] was over 100 µM and the TGI [20] was over 100 µM. It also gave a TGI [21] of over 100 µM, a TGI [22] of over 100 µM and a TGI [23] of over 100 µM. The TGI [24] was 80 µM, the TGI [25] was over 100 µM and the TGI [26] was over 100 µM. The TGI [27] was 83.4 µM, the TGI [58] was over 100 µM and the TGI [28] was over 100 µM. It also gave a TGI [29] of 32.2 µM, a TGI [30] of over 100 µM and a TGI [31] of over 100 µM. The TGI [32] was over 100 µM, the TGI [33] was over 100 µM and the TGI [34] was 36.7 µM. It also gave a TGI [35] of 71 µM, a TGI [36] of over 100 µM and a TGI [37] of 38.2 µM. For the same compound, the TGI [38] was 40.7 µM, the TGI [39] was over 100 µM and the TGI [40] was 58.7 µM. It also gave a TGI [42] of over 100 µM, a TGI [43] of over 100 µM and a TGI [44] of over 100 µM. For the same compound, the TGI [45] was over 100 µM, the TGI [46] was over 100 µM and the TGI [47] was over 100 µM. For the same compound, the TGI [48] was over 100 µM, the TGI [59] was over 100 µM and the TGI [49] was over 100 µM. For the same compound, the TGI [50] was over 100 µM, the TGI [51] was over 100 µM and the TGI [52] was over 100 µM. It also gave a TGI [53] of over 100 µM, a TGI [54] of over 100 µM and a TGI [55] of 75.9 µM. It also gave a TGI [56] of 46.9 µM and a TGI [57] of over 100 µM.

Work on `O=C1CC2(CCC(O)(c3ccccc3)C(C(=O)c3ccccc3)C2)C(=O)c2ccccc2N1` (configuration not stated) yielded a TGI [1] of over 100 µM, a TGI [2] of over 100 µM and a TGI [4] of over 100 µM. For the same compound, the TGI [6] was over 100 µM, the TGI [7] was over 100 µM and the TGI [8] was over 100 µM. The TGI [9] was over 100 µM, the TGI [10] was over 100 µM and the TGI [11] was over 100 µM. It also gave a TGI [12] of over 100 µM, a TGI [13] of over 100 µM and a TGI [15] of over 100 µM. It also gave a TGI [16] of over 100 µM, a TGI [17] of over 100 µM and a TGI [18] of over 100 µM. It also gave a TGI [19] of over 100 µM, a TGI [20] of over 100 µM and a TGI [21] of over 100 µM. The TGI [22] was over 100 µM, the TGI [23] was over 100 µM and the TGI [24] was over 100 µM. For the same compound, the TGI [25] was over 100 µM, the TGI [26] was over 100 µM and the TGI [27] was over 100 µM. It also gave a TGI [28] of over 100 µM, a TGI [29] of over 100 µM and a TGI [30] of over 100 µM. For the same compound, the TGI [31] was over 100 µM, the TGI [32] was over 100 µM and the TGI [33] was over 100 µM. For the same compound, the TGI [34] was over 100 µM, the TGI [35] was over 100 µM and the TGI [36] was over 100 µM. It also gave a TGI [37] of over 100 µM, a TGI [38] of over 100 µM and a TGI [39] of over 100 µM. The TGI [40] was over 100 µM, the TGI [41] was over 100 µM and the TGI [42] was over 100 µM. For the same compound, the TGI [43] was over 100 µM, the TGI [44] was over 100 µM and the TGI [45] was over 100 µM. For the same compound, the TGI [46] was over 100 µM, the TGI [47] was over 100 µM and the TGI [48] was over 100 µM. The TGI [59] was over 100 µM, the TGI [49] was over 100 µM and the TGI [50] was over 100 µM. The TGI [51] was over 100 µM, the TGI [52] was over 100 µM and the TGI [53] was over 100 µM. It also gave a TGI [54] of over 100 µM, a TGI [55] of over 100 µM and a TGI [57] of over 100 µM.
